According to PMC4847013, “Pronounced peptide selectivity for melanoma through tryptophan end-tagging” (Scientific Reports, 2016):
Counter-ions that a name gives are not always drawn. Ends that are not written are not given here.

Assays:
tumor cells = test system: tumor cells; parameters: method as in PMID 20876209, PMID 20406839; conditions: cited from earlier work
Excerpt: However, since it is taken up by tumor cells through passive diffusion, the overall response rate of doxorubicin is only about 30%[51][52].

fibroblasts = assay: Lactate dehydrogenase (LDH) assay; type: cell-based; conditions: 48 h, 1% FBS, LDH release relative to 1% Triton X-100, triplicate, Fig. 8a
erythrocytes = assay: Hemolysis assay; type: cell-based; conditions: 5% erythrocytes in PBS pH 7.4, 1 h, 37 °C, peptides 60 or 120 μM, % of 2% Triton X-100, triplicate, Fig. 8b
Method: EDTA-blood was centrifuged at 800 g for 10 min, whereafter plasma and buffy coat were removed. The erythrocytes were washed three times and resuspended to 5% in PBS, pH 7.4. The cells were then incubated with end-over-end rotation for 1 h at 37 °C in the presence of peptides (60 or 120 μM). 2% Triton X-100 (Sigma-Aldrich, St. Louis, USA) served as positive control. The samples were then centrifuged at 800 g for 10 min. The absorbance of hemoglobin release was measured at 540 nm and is expressed as % of Triton X-100 induced hemolysis. Results given represent mean values from triplicate measurements.

Row | Molecule | overall response rate (tumor cells) | Concentration up to which no significant toxicity is seen (LDH release) (fibroblasts) | Concentration up to which hemolysis is very low, at the background level of the negative control (erythrocytes)
1 | COc1cccc2c1C(=O)c1c(O)c3c(c(O)c1C2=O)C[C@@](O)(C(=O)CO)C[C@@H]3O[C@H]1C[C@H](N)[C@H](O)[C@H](C)O1 [doxorubicin, Doxorubicin hydrochloride] | about 30% | – | –
2 | GRRPRPRPRP [GRR10] | – | at least 50 μM | at least 120 μM
3 | GRRPRPRPRPWWWW [GRR10W4] | – | at least 50 μM | at least 120 μM
